Assays:
[1] = system: Influenza A virus; assay: Antiviral activity against influenza A virus […] subtype infected in dog MDCK cells assessed as reduction of virus-induced cytopathogenicity by MTS assay; format: functional, organism-based; settings: read-out: EC50
[2] = system: Human alphaherpesvirus 3; assay: Antiviral activity against […] Varicella-zoster virus 07-1 infected in human HEL cells assessed as reduction of plaque formation; format: functional, organism-based; settings: Human alphaherpesvirus 3, 07-1, HEL
[3] = system: Influenza B virus; assay: Antiviral activity against influenza B virus infected in dog MDCK cells assessed as reduction of virus-induced cytopathogenicity by MTS assay; format: functional, organism-based
[4] = system: Human alphaherpesvirus 1; assay: Antiviral activity against Herpes simplex virus-1 KOS infected in human HEL cells assessed as reduction of virus-induced cytopathogenicity; format: functional, organism-based; settings: Human alphaherpesvirus 1, KOS
[5] = system: Heme; assay: Binding affinity to monomeric heme (unknown origin) in HEPES buffer at pH 7.4 at 1 to 25 uM by UV-visible spectrophotometry
[6] = system: Respiratory syncytial virus; assay: Antiviral activity against Respiratory syncytial virus infected in human HeLa cells assessed as reduction of virus-induced cytopathogenicity; format: functional, organism-based
[7] = system: Human alphaherpesvirus 2; assay: Antiviral activity against Herpes simplex virus-2 G infected in human HEL cells assessed as reduction of virus-induced cytopathogenicity; format: functional, organism-based; settings: Human alphaherpesvirus 2, strain G
[8] = Inhibition of beta-hematin formation at 1 mg/ml; format: functional
[9] = system: Coxsackievirus; assay: Antiviral activity against Coxsackievirus B4 infected in african green monkey Vero cells assessed as reduction of virus-induced cytopathogenicity; format: functional, organism-based
[10] = system: Sindbis virus; assay: Antiviral activity against Sindbis virus infected in african green monkey Vero cells assessed as reduction of virus-induced cytopathogenicity; format: functional, organism-based
[11] = system: Human respirovirus 3; assay: Antiviral activity against Parainfluenza-3 virus infected in african green monkey Vero cells assessed as reduction of virus-induced cytopathogenicity; format: functional, organism-based; settings: Human respirovirus 3, Vero
[12] = system: Vesicular stomatitis virus; assay: Antiviral activity against Vesicular stomatitis virus infected in human HEL cells assessed as reduction of virus-induced cytopathogenicity; format: functional, organism-based
[13] = Selectivity index, ratio of CC50 for MDCK cells to IC50 for chloroquine-resistant Plasmodium falciparum Dd2; format: functional
[14] = system: Mammalian orthoreovirus 1; assay: Antiviral activity against Reovirus-1 infected in african green monkey Vero cells assessed as reduction of virus-induced cytopathogenicity; format: functional, organism-based; settings: Mammalian orthoreovirus 1, Vero
[15] = system: DNA; assay: Binding affinity to calf thymus DNA at 30 uM by fluorescence assay; format: nucleic-acid assay; settings: Bos taurus
[16] = Cytotoxicity against human HEL cells; format: cell-based
[17] = system: Human alphaherpesvirus 3; assay: Antiviral activity against TK-positive Varicella-zoster virus OKA infected in human HEL cells assessed as reduction of plaque formation; format: functional, cell-based; settings: Human alphaherpesvirus 3, strain Oka vaccine
[18] = system: DNA; assay: Binding affinity to calf thymus DNA assessed as change in melting temperature at 30 uM by UV-visible spectrophotometry; format: nucleic-acid assay; settings: Bos taurus
[19] = Cytotoxicity against cat CRFK cells; format: cell-based, Felis catus; settings: crfk
[20] = system: Feline coronavirus; assay: Antiviral activity against Feline coronavirus infected in cat CRFK cells assessed as reduction of virus-induced cytopathogenicity by MTS assay; format: functional, organism-based; settings: Alphacoronavirus 1, CRFK
[21] = system: Felid alphaherpesvirus 1; assay: Antiviral activity against feline herpesvirus infected in cat CRFK cells assessed as reduction of virus-induced cytopathogenicity by MTS assay; format: functional, organism-based; settings: Felid alphaherpesvirus 1, CRFK
[22] = system: Vesicular stomatitis virus; assay: Antiviral activity against Vesicular stomatitis virus infected in human HeLa cells assessed as reduction of virus-induced cytopathogenicity; format: functional, organism-based
[23] = system: Plasmodium falciparum; assay: Antimalarial activity against chloroquine-resistant Plasmodium falciparum Dd2; format: functional, organism-based
[24] = system: Escherichia coli; assay: Binding affinity to Escherichia coli pUC18 DNA at 30 uM by fluorescence assay
[25] = system: Heme; assay: Binding affinity to monomeric heme (unknown origin) in MES buffer at pH 5.6 at 1 to 25 uM by UV-visible spectrophotometry
[26] = (§1) Cytotoxicity against MDCK cells assessed as cell viability after 4 days by MTS assay; format: cell-based, Canis lupus familiaris; settings: dog, MDCK cells
[27] = system: MDCK; assay: as §1; format: cell-based, Canis lupus familiaris; settings: dog, mdck, 96 h
[28] = system: Punta Toro virus; assay: Antiviral activity against […] infected in african green monkey Vero cells assessed as reduction of virus-induced cytopathogenicity; format: functional, organism-based
[29] = Cytotoxicity against human HeLa cells; format: cell-based
[30] = system: Influenza A virus; assay: Antiviral activity against influenza A virus H1N1 subtype infected in dog MDCK cells assessed as reduction of virus-induced cytopathogenicity by MTS assay; format: functional, organism-based
[31] = Cytotoxicity against african green monkey Vero cells; format: cell-based; settings: chlorocebus sabaeus
[32] = system: Cytomegalovirus; assay: Antiviral activity against Cytomegalovirus AD-169 infected in human HEL cells assessed as reduction of plaque formation; format: functional, organism-based; settings: Human betaherpesvirus 5, AD-169, HEL
[33] = system: Cytomegalovirus; assay: Antiviral activity against Cytomegalovirus Davis infected in human HEL cells assessed as reduction of plaque formation; format: functional, organism-based; settings: Human betaherpesvirus 5, Davis
[34] = system: Coxsackievirus; assay: Antiviral activity against Coxsackievirus B4 infected in human HeLa cells assessed as reduction of virus-induced cytopathogenicity; format: functional, organism-based
[35] = system: Human alphaherpesvirus 1; assay: Antiviral activity against TK-negative Herpes simplex virus 1 KOS infected in human HEL cells assessed as reduction of virus-induced cytopathogenicity; format: functional, organism-based; settings: Human alphaherpesvirus 1, KOS
[36] = system: DNA; assay: Binding affinity to calf thymus DNA assessed as compound DNA intercalation measured as hypochromatic shift at 330 nm at 30 uM by UV-visible spectrophotometry; format: nucleic-acid assay; settings: Bos taurus
[37] = system: mu-oxodimeric heme; assay: Binding affinity to mu-oxodimericheme (unknown origin) in phosphate buffer at pH 5.8 at 1 to 25 uM by UV-visible spectrophotometry
[38] = system: DNA; assay: Binding affinity to calf thymus DNA assessed as compound DNA intercalation measured as hypochromatic shift at 255 nm at 30 uM by UV-visible spectrophotometry; format: nucleic-acid assay; settings: Bos taurus

## Cc1nc(NCCCCNc2ccnc3cc(Cl)ccc23)nc(-c2ccccc2)c1C(=O)OC(C)C
[1]
  EC50: > 0.16 µM
[2]
  EC50: > 4 µM
[3]
  EC50: > 0.16 µM
[4]
  EC50: > 4 µM
[5]
  log K: 4.96
[6]
  EC50: > 100 µM
[7]
  EC50: > 4 µM
[8]
  inhibition: 72%
[9]
  EC50: > 4 µM
[10]
  EC50: > 4 µM
[11]
  EC50: > 4 µM
[12]
  EC50: > 4 µM
[13]
  Ratio CC50/IC50: 3.92
[14]
  EC50: > 4 µM
[15]
  log K: 5.76
[16]
  MCC: 20 µM
[17]
  EC50: 4 µM
[18]
  ΔTm: 7.5 °C
[19]
  CC50: 50.6 µM
[20]
  EC50: > 20 µM
[21]
  EC50: > 20 µM
[22]
  EC50: > 100 µM
[23]
  IC50: 0.153 µM
[24]
  log K: 5.73
[25]
  log K: 4.58
[26]
  MCC at 96 h: 800 nM
[27]
  CC50: 0.6 µM
[28]
  EC50: > 4 µM
[29]
  MCC: > 100 µM
[30]
  EC50: > 0.16 µM
[31]
  MCC: 20 µM
[32]
  EC50: > 4 µM
[33]
  EC50: > 4 µM
[34]
  EC50: > 100 µM
[35]
  EC50: > 4 µM
[36]
  Activity: 37%
[37]
  log K: 5.72
[38]
  Activity: 112%

Source: ChEMBL document CHEMBL2417501, “Synthesis of 4-aminoquinoline-pyrimidine hybrids as potent antimalarials and their mode of action studies” (Eur J Med Chem, 2013)
